# Results taken from patent publication EP4308247B1, “USE OF MONO[…] TREATING SIGNS OF SKIN AGING” (Unilever IP Holdings B.V., priority 2021, dated 2022).
# Tested on: primary adult human dermal fibroblasts (HDFs)
# Experiment: High-throughput compound screen for senolytic activity (cell viability by Hoechst 33342 / SYTOX Green imaging) in early proliferating (EP) and deeply senescent (DS) fibroblasts
# Format: cell-based
# Set-up: key to hit classification based on EP and DS cell viability: senolytic: EP cell viability above the 89% EP threshold and DS cell viability below the 87% DS threshold for at least one concentration of the three serial concentrations; prolifolytic: decreased EP cell viability below the 89% EP threshold but did not decrease DS cell viability below 87%; cytotoxic: decreased both EP and DS cell viability below their respective thresholds; non-toxic: maintained both EP and DS viability above their respective thresholds
# From the text: A high-throughput compound screen of 1240 test compounds including inter alia monostearin (IUPAC: 1,3-dihydroxypropan-2-yl octadecanoate 2,3-dihydroxypropyl octadecanoate) was optimised in primary adult human dermal fibroblasts (HDFs). For this, a model of replicative senescence in HDFs was established. In brief, early proliferating (EP) fibroblasts at passage 11 were serially passaged until they reached replicative senescence at passage 29.
# Actinomycin D, a drug widely reported to induce apoptosis in multiple cell types, was optimised for use as a positive 'senolytic control' for the high-throughput compound screen in EP (0.02µM) and DS (0.2µM) HDFs.
# In order to perform the high-throughput screen of the test compounds a thorough validation process of the assay was undertaken prior to experimental screening. For both EP and DS HDFs, the following steps were optimised: optimisation of cell seeding densities in 384-well plate format; validation and optimisation of Actinomycin D positive and DMSO-vehicle negative controls; optimisation of high-throughput image acquisition and high content analysis of Hoechst 33342 (ThermoFisher, UK) in combination with SYTOX Green (ThermoFisher, UK) using the INCell 2200 microscope (GE, UK) for cell death phenotypic read-outs; optimisation of liquid handling system protocols; plate uniformity assessments; and a "dry run" of all components in the assay. […]
smiles,measurement,setting,value
"CCCCCCCCCCCCCCCCCC(=O)OCC(O)CO (centres unmarked) [monostearin, 1,3-dihydroxypropan-2-yl octadecanoate 2,3-dihydroxypropyl octadecanoate]","cytotoxicity for senescent cells, compared to growing cells","DS versus EP HDFs, conclusion drawn from the screen",preferential cytotoxicity for senescent cells
same,hit classification based on EP and DS cell viability,"EP and DS HDFs, three serial concentrations, 48 hours incubation, read-out five days post-compound addition, class met for at least one concentration",senolytic
